Legend:
[1] = Heart rate (HR) during exercise sessions; format: in vivo, human; details: for HR (bpm): 10 g/day, mean ± SD
Protocol: A high-intensity exercise protocol was designed as a double-blind, crossover study to assess the influence of D-Ribose adaptation to physical stress. Specifically, D-Ribose and a control (Dextrose) were administered on separate subjects at a dosage of ten grams per day (10 g/day). A variety of physiological parameters were measured in the subjects administered D-Ribose (DR) supplementation (i.e., the DR subjects) versus the subjects administered Dextrose (DEX) supplementation (i.e., the DEX subjects). To test D-ribose for adaptation, the twenty-six (26) adult subjects were further divided into two subgroups based on their fitness level (i.e., peak oxygen uptake (VO2 max) results. The first subgroup comprised subjects with higher VO2 max results (i.e., the “Fit Subgroup”) and the second subgroup comprised subjects with lower VO2 max results (i.e., the “Unfit Subgroup”). The Unfit Subgroup consisted of six (6) females and seven (7) males. The average age of the Unfit Subgroup was 27.7±3.4 years and the average peak VO2 of the Unfit Subgroup was 39.9±4.1 mL/kg/min. The Fit Subgroup consisted of four (4) females and nine (9) males. The average age of the Fit Subgroup was 27.6±3.5 year and the average peak VO2 of the Fit Subgroup was 52.2±4.3 mL/kg/min. The protocol of the double-blind crossover study involved an initial baseline assessment, followed by two separate day assessments after consuming either a DR or DEX supplement. Each exercise session entailed measurements of creatine kinase (CK), blood urea nitrogen (BUN), glucose, heart rate (HR), rate of perceived exertion (RPE), and power output (PO) measurements. Each exercise session consisted of six (6) ten-minute intervals of exercise on a cycle ergometer. During each ten-minute interval, the subject cycled for eight (8) minutes at a workload of approximately 60% of the subject's VO2 max, then immediately cycled for an additional two (2) minutes at a workload of approximately 80% VO2 max (approximately one workload above the subject's calculated lactate threshold). Cadence and power output were monitored at ten-minute intervals during each exercise session. At the end of the sixty-minute exercise session, each subject completed a two-minute performance task (time trial). This performance task required the subject to produce as much power as possible during the two-minute interval. Peak power, average power, and percent decline were assessed during this two-minute task trial. Workload for performance task was set at five percent (5%) of the subject's body weight. Heart rate was recorded using a Polar HR monitor. Blood glucose levels were measured using a Bayer glucose monitor. Blood lactate levels were measured by an AccuSport Lactate Analyzer. Creatine kinase and BUN were measured utilizing an Abaxis Piccolo analyzer. Power data from the time trial performance test was assessed with the Sports Medicine Industries (SMI) software package.

[2] = Blood glucose levels during exercise; format: in vivo, human; details: mean (SD)
Protocol: A high-intensity exercise protocol was designed as a double-blind, crossover study to assess the influence of D-Ribose adaptation to physical stress. Specifically, D-Ribose and a control (Dextrose) were administered on separate subjects at a dosage of ten grams per day (10 g/day). A variety of physiological parameters were measured in the subjects administered D-Ribose (DR) supplementation (i.e., the DR subjects) versus the subjects administered Dextrose (DEX) supplementation (i.e., the DEX subjects). To test D-ribose for adaptation, the twenty-six (26) adult subjects were further divided into two subgroups based on their fitness level (i.e., peak oxygen uptake (VO2 max) results. The first subgroup comprised subjects with higher VO2 max results (i.e., the “Fit Subgroup”) and the second subgroup comprised subjects with lower VO2 max results (i.e., the “Unfit Subgroup”). The Unfit Subgroup consisted of six (6) females and seven (7) males. The average age of the Unfit Subgroup was 27.7±3.4 years and the average peak VO2 of the Unfit Subgroup was 39.9±4.1 mL/kg/min. The Fit Subgroup consisted of four (4) females and nine (9) males. The average age of the Fit Subgroup was 27.6±3.5 year and the average peak VO2 of the Fit Subgroup was 52.2±4.3 mL/kg/min. Physiologic parameters were measured and hydration was provided to the subjects during the exercise session. The same protocol for testing and hydration protocol was followed for both DR subjects and DEX subjects. Blood samples were drawn from each subject via a venipuncture technique at the following time periods: • Ten (10) minutes before commencement of exercise; • Twenty (20) minutes after the commencement of and during exercise; • Forty (40) minutes after the commencement of and during exercise; • Sixty (60) minutes after the commencement of and during exercise; and • Twenty-four (24) hours after the conclusion of exercise (twenty-five (25) hours after the commencement of exercise). Blood glucose was measured at all of the above time points except at twenty-four (24) hours post-exercise. Creatine kinase and BUN levels were measured at the pre-exercise (−10 min.) point during the three (3) days of exercise and twenty-four (24) hours post-exercise following the third (last) exercise session. Heart rate was recorded using a Polar HR monitor. Blood glucose levels were measured using a Bayer glucose monitor. Blood lactate levels were measured by an AccuSport Lactate Analyzer. Creatine kinase and BUN were measured utilizing an Abaxis Piccolo analyzer. Power data from the time trial performance test was assessed with the Sports Medicine Industries (SMI) software package.

Row | SMILES | Average HR ([1]; Fit Subgroup) [bpm] | HR (bpm) ([1]; Fit Subgroup) | Average HR ([1]; Unfit Subgroup) [bpm] | HR (bpm) ([1]; Unfit Subgroup) | Blood glucose level during exercise ([2]; Fit Subgroup, 19.5) | Blood glucose level during exercise ([2]; Fit Subgroup, 39.5) | Blood glucose level during exercise ([2]; Fit Subgroup, 59.5) | Blood glucose level during exercise ([2]; Unfit Subgroup, 19.5) | Blood glucose level during exercise ([2]; Unfit Subgroup, 39.5) | Blood glucose level during exercise ([2]; Unfit Subgroup, 59.5)
1 | O=C[C@H](O)[C@H](O)[C@H](O)CO [DR, D-Ribose] | 153±12 | 152.6 ± 11.9 | 152±20 | 151.5 ± 19.4 | 3.8 (0.5) mM/L | 4.0 (0.5) mM/L | 3.9 (0.5) mM/L | 4.0 (0.6) mM/L | 4.0 (0.6) mM/L | 4.1 (0.7) mM/L
2 | O=C[C@H](O)[C@@H](O)[C@H](O)[C@H](O)CO [DEX, Dextrose, reference compound] | 153±12 | 152.4 ± 11.7 | 153±17 | 152.0 ± 19.5 | 4.0 (0.6) mM/L | 4.1 (0.7) mM/L | 4.0 (0.6) mM/L | 4.0 (0.5) mM/L | 4.0 (0.5) mM/L | 3.9 (0.6) mM/L
